Patent US20030212051A1, “Bile acid containing prodrugs with enhanced bioavailabilty” (priority 2003, published 2003)
Where a name gives a salt, the structure may show the parent alone. Read-outs that look alike come from different tables or passages of the source.

Tests used:
[1] = target: T1, human intestinal bile acid transporter (hIBAT) (Homo sapiens, UniProt Q12908); test: Competitive inhibition of 3H-taurocholate uptake in COS-hIBAT cells; format: cell-based; conditions: for Ki: COS-7 cells transfected with hIBAT, HBSS with sodium, value (±SEM); for inhibition of 3H-taurocholate uptake / interaction with hIBAT (in words): COS-hIBAT cells, 0.25 μM 3H-taurocholate, valacyclovir 10 to 600 μM, atenolol 10 to 200 μM, glycine and taurine 50 to 200 μM, bile acids 1 to 100 μM
T1 construct: expressed in transfected cells; host or cells: COS-7 cells, transient transfection with pCMV5-hIBAT (LipofectAMINE 2000)
T1 sequence (Q12908 1-348): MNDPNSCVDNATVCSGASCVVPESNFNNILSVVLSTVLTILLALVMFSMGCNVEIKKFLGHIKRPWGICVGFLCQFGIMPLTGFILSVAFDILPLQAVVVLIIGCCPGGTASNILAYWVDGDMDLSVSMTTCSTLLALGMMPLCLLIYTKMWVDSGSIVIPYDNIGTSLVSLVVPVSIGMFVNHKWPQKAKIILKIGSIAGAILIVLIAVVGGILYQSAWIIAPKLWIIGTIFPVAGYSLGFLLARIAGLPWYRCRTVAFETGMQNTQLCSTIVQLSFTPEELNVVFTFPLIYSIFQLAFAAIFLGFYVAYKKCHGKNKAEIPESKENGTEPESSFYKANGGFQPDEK
Experimental: Cell dilutions are streaked on nutrient agar plates containing 50 μg/ml ampicillin, and incubated at 37° C. overnight. Isolated colonies are selected aseptically, and are used to inoculate a 200 ml nutrient broth culture containing 50 μg/ml ampicillin. […] After an isopropanol precipitation and ethanol wash, the DNA is reconstituted in 600 μl of sterile deionized water. […] Cells are transfected at 24 hours post seeding. For each well transfected, 0.8 μg hIBAT cDNA is combined with LipofectAMINE 2000 reagent and incubated at room temperature for 20 minutes to allow complexes to form. A volume of 100 μl of hIBAT-lipid complex is added to each well of cells.
Uptake studies are performed on COS-hIBAT cells at 24 hours post-transfection. […] Because bile acid transport is sodium dependent, this MHBSS approach allows for the simple modification of the uptake buffer to exclude all sources of sodium, and thus enables for a control uptake assay under sodium-free conditions.
Incubation conditions and analysis are performed as described for the Km and Vmax studies. The following equation (Formula 2) is used to estimate the Ki for a series of naturally occurring bile acids: [formula]
Inhibition studies are performed in triplicate.

Caco-2 monolayers = conditions: across Caco-2 monolayers; example value for reference marker; cited from earlier work
[2] = cited from earlier work
[3] = target: T2, human intestinal peptide transporter (PepT1) (Homo sapiens, UniProt P46059); conditions: stable lines of CHO/PepT1; cited from earlier work
T2 sequence (P46059 1-708): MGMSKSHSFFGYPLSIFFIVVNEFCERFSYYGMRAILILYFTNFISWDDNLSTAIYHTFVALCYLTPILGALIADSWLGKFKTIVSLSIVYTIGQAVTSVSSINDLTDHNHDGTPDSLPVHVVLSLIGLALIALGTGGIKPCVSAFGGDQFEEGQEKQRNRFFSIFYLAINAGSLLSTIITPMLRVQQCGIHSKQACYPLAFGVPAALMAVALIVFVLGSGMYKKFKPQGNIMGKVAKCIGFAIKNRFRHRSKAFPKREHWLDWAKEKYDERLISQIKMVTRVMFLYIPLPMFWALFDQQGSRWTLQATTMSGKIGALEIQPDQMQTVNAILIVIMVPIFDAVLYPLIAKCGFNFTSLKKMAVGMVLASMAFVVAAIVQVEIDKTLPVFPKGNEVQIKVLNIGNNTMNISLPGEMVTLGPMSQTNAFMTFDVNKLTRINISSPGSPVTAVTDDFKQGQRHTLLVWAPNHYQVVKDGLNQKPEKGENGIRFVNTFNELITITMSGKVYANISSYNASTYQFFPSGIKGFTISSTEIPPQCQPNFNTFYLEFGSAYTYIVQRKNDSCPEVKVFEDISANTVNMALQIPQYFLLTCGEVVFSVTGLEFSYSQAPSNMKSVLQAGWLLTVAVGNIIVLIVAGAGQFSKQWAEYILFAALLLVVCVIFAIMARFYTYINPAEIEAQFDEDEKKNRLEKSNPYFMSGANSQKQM

[4] = read-out: Ki, inhibition of 3H-taurocholate uptake

SMILES: CC(C)C(NC(=O)CCC(C)C1CCC2C3CCC4CC(O)CCC4(C)C3CC(O)C12C)C(=O)OCCOCn1cnc2c(=O)[nH]c(N)nc21 (centres unmarked) [acyclovir valyldeoxycholate]
- Ki [1, 4]: 401 µM

SMILES: NCCS(=O)(=O)O [taurine]
- inhibition of 3H-taurocholate uptake / interaction with hIBAT (in words) [1]: not reduced

SMILES: COCCc1ccc(OCC(O)CNC(C)C)cc1 (centres unmarked) [metoprolol tartrate]
- permeability (Caco-2 monolayers): 40 ×10⁻⁶ cm/s

SMILES: CC(C)[C@H](NC(=O)CC[C@@H](C)[C@H]1CC[C@H]2[C@@H]3[C@H](O)C[C@@H]4C[C@H](O)CC[C@]4(C)[C@H]3CC[C@]12C)C(=O)OCCOCn1cnc2c(=O)[nH]c(N)nc21 [acyclovir valylchenodeoxycholate]
- Ki [1, 4]: 35.6 µM

SMILES: NCC(=O)O [glycine]
- inhibition of 3H-taurocholate uptake / interaction with hIBAT (in words) [1]: not reduced

SMILES: C[C@H](CCC(=O)O)[C@H]1CC[C@H]2[C@@H]3[C@H](O)C[C@@H]4C[C@H](O)CC[C@]4(C)[C@H]3CC[C@]12C [chenodeoxycholate]
- Ki [1]: 5.4 µM

SMILES: CC(C)[C@H](N)C(=O)OCCOCn1cnc2c(=O)[nH]c(N)nc21 [valacyclovir]
- inhibition of 3H-taurocholate uptake / interaction with hIBAT (in words) [1]: no inhibition
- inhibition of 3H-taurocholate uptake / interaction with hIBAT (in words) ([1]; listed as Valacyclovir): do not inhibit
- bioavailability after oral administration [2]: 54%
- Ki [3]: 1100 µM

SMILES: C[C@H](CCC(=O)O)[C@H]1CC[C@H]2[C@@H]3CC[C@@H]4C[C@H](O)CC[C@]4(C)[C@H]3CC[C@]12C [lithocholate]
- inhibition of 3H-taurocholate uptake / interaction with hIBAT (in words) [1]: never reaches 50% maximal velocity
